Experiment in all cases: Post-emergence action against weeds, greenhouse pot test, visual scoring
Common to all, as to format: in vivo

The test system of one experiment is Oryza sativa (ORYSA). The following applies: read-out: % activity found; for inhibition at 210 g/ha: 210 g of ai/ha alone. On the procedure:
(§1) Seeds or rhizome pieces of mono- and dicotyledonous harmful and useful plants were placed in peat pots (diameter 4 cm) filled with sandy loam and then covered with soil. The pots were kept in a greenhouse under optimum conditions. In addition, harmful plants encountered in paddy rice cultivation were cultivated in pots with a water level 2 cm above the soil surface.
(§2) About three weeks after the start of the cultivation, the test plants were treated at the 2- to 3-leaf stage. The herbicides, formulated as powder or liquid concentrates, were, either alone or in the combinations according to the invention, sprayed in various dosages on to the green parts of the plants using an application rate of 600 l of water/ha (converted). For further cultivation of the plants, the pots were then again kept under optimum conditions in a greenhouse.
(§3) The visual scoring of the herbicidal effects was carried out in intervals up to 21 days after the treatment. Scoring was carried out in percent in comparison to the untreated control plants. 0%=no herbicidal activity, 100%=complete herbicidal activity=complete kill.
(§4) The percentages from the treatments with the herbicides alone (=individual application) and with the combinations according to the invention (=mixtures) were employed to calculate interactions using the method of Colby. When the observed efficacies of the mixtures exceed the formal sum of the values of the tests with individual applications, they also exceed the expected value according to Colby, which is calculated using the formula below (cf. S. R. Colby; in Weeds 15 (1967) pp. 20 to 22):
(§5) • A, B=activity of components A and B in percent at a dosage of a and b g of ai/ha (=gramm of active substance per hectare), respectively. • E=expected value in % at a dosage of a+b g of ai/ha.

Experiment [1] relates to Alopecurus myosuroides (ALOMY). The following applies: read-out: % activity found; for inhibition at 20 g/ha: 20 g of ai/ha alone; for inhibition at 60 g/ha: 60 g of ai/ha alone. As to the method:
as §1, §2, §3, §4, §5

Experiment [2] concerns Cyperus esculentus (CYPES). As to the method:
as §1, §2, §3
(§6) The percentages from the treatments with the herbicides alone (=individual application) and with the combinations according to the invention (=mixtures) were employed to calculate interactions using the method of Colby.
as §5

The subject of experiment [3] is Lolium multiflorum (LOLMU). The following applies: Lolium multiflorum, post-emergence, LOLMU, read-out: % activity found; for inhibition at 60 g/ha: 60 g of ai/ha alone; for inhibition at 12 g/ha: 12 g of ai/ha alone; for inhibition at 70 g/ha: 70 g of ai/ha alone; for inhibition at 750 g/ha: 750 g of ai/ha alone. On the procedure: as §1, §2, §3, §6, §5
Experiment [4] relates to Triticum aestivum (TRZAS). The settings on record: Triticum aestivum, post-emergence, read-out: % activity found; for inhibition at 20 g/ha: 20 g of ai/ha alone; for inhibition at 60 g/ha: 60 g of ai/ha alone; for inhibition at 750 g/ha: 750 g of ai/ha alone. As to the method: as §1, §2, §3, §6, §5
Experiment [5] relates to Fallopia (ex Polygonum) convolvulus (POLCO). The settings on record: Fallopia convolvulus, post-emergence, 504 h, POLCO, 21 DAT, read-out: % activity found. On the procedure:
as §1, §2, §3, §6, §5

A further experiment relates to Zea mays (ZEAMX). The following applies: for inhibition at 36 g/ha: 36 g of ai/ha alone. As to the method: as §1, §2, §3, §6, §5
Experiment [6] deals with Matricaria inodora (MATIN). The settings on record: Tripleurospermum inodorum, post-emergence, 504 h, MATIN, 21 DAT, read-out: % activity found. On the procedure: as §1, §2, §3, §6, §5
For the next experiment, the system named is Avena fatua (AVEFA). The settings on record: Avena fatua, post-emergence, 504 h, read-out: % activity found. On the procedure: as §1, §2, §3, §6, §5
Where [7] appears, read: Zea mays, post-emergence, 240 h, read-out: % activity found.
The mark [8] stands for this setting: Cyperus esculentus, post-emergence, 504 h, read-out: % activity found.

Results on five molecules are retold here after patent US20100075852A1, “HERBICIDE COMBINATION COMPRISING DIMETHOXYTRIAZINYL-SUBSTITUTED DIFLUOROMETHANESULFONYLANILIDES” (BAYER CROPSCIENCE AG, priority 2008, published 2010).

Like-named read-outs stand apart in the source and are kept apart here.

As to `CS(=O)(=O)c1cc(C(F)(F)F)ccc1C(=O)c1cnoc1C1CC1` [B3-3, (5-cyclopropyl-4-isoxazolyl)[2-(methylsulfonyl)-4-(trifluoromethyl)phenyl]methanone], the inhibition at 20 g/ha in the experiment on Oryza sativa (ORYSA) (240 h, ORYSA, 10 DAT, 20 g of ai/ha alone) was found to be 50%; in experiment [1] (240 h, ALOMY, 10 DAT), 20%; in [1] (504 h, ALOMY, 21 DAT), 0%; in [2] (Cyperus esculentus, post-emergence, 504 h, CYPES, 21 DAT, 20 g of ai/ha alone, read-out: % activity found) it was 0%; in experiment [3] (504 h, 21 DAT, 20 g of ai/ha alone), 0%; in [4] (240 h, 10 DAT) it was 30%. For the same molecule, the inhibition at 20 g/ha amounted to 20% in experiment [4] (504 h, 21 DAT); 0% in [5] (20 g of ai/ha alone); 0% in the experiment on Zea mays (ZEAMX) (Zea mays, post-emergence, 504 h, ZEAMX, 21 DAT, 20 g of ai/ha alone, read-out: % activity found). Further, the inhibition at 60 g/ha in [1] (240 h, ALOMY, 10 DAT) is 30%; in experiment [1] (504 h, ALOMY, 21 DAT), 10%; in [3] (240 h, 10 DAT), 30%; in experiment [3] (504 h, 21 DAT), 0%; in [4] (240 h, 10 DAT), 50%; in experiment [4] (504 h, 21 DAT), 40%. The inhibition at 60 g/ha in experiment [5] (60 g of ai/ha alone) was determined as 0%; in the experiment with Zea mays (ZEAMX) (Zea mays, post-emergence, 504 h, ZEAMX, 21 DAT, 60 g of ai/ha alone, read-out: % activity found), 20%.
`C#CCOc1cc(-n2nc(C(C)(C)C)oc2=O)c(Cl)cc1Cl` [B5-2, 3-[2,4-dichloro-5-(2-propynyloxy)phenyl]-5-(1,1-dimethylethyl)-1,3,4-oxadiazol-2(3H)-one]: the inhibition at 12 g/ha amounted to 20% in experiment [1] (504 h, ALOMY, 21 DAT, 12 g of ai/ha alone); 40% in experiment [3] (240 h, 10 DAT); 30% in [3] (504 h, 21 DAT); 60% in experiment [6] (12 g of ai/ha alone); 20% with Avena fatua (AVEFA) (AVEFA, 21 DAT, 12 g of ai/ha alone). Besides, the inhibition at 36 g/ha in experiment [3] (504 h, 21 DAT, 36 g of ai/ha alone) stood at 65%; in experiment [6] (36 g of ai/ha alone) it was 60%; in experiment [4] (240 h, 10 DAT, 36 g of ai/ha alone), 40%; in the experiment on Zea mays (ZEAMX) (Zea mays, post-emergence, 240 h, ZEAMX, 10 DAT, read-out: % activity found), 60%; in the experiment on Zea mays (ZEAMX) (Zea mays, post-emergence, 504 h, ZEAMX, 21 DAT, read-out: % activity found) it was 40%.
Regarding `CC(C)Oc1cc(-n2nc(C(C)(C)C)oc2=O)c(Cl)cc1Cl` [B5-3, 3-[2,4-dichloro-5-(1-methylethoxy)phenyl]-5-(1,1-dimethylethyl)-1,3,4-oxadiazol-2(3H)-one], the inhibition at 210 g/ha in the experiment on Oryza sativa (ORYSA) (240 h, ORYSA, 10 DAT) came to 40%; in the experiment on Oryza sativa (ORYSA) (504 h, ORYSA, 21 DAT), 0%; in [6] (210 g of ai/ha alone) it was 70%; with Zea mays (ZEAMX) (Zea mays, post-emergence, 504 h, ZEAMX, 21 DAT, 210 g of ai/ha alone, read-out: % activity found), 60%; in the experiment on Avena fatua (AVEFA) (AVEFA, 21 DAT, 210 g of ai/ha alone) it was 30%. The inhibition at 70 g/ha in the experiment on Oryza sativa (ORYSA) (504 h, ORYSA, 21 DAT, 70 g of ai/ha alone) was found to be 0%; in experiment [3] (240 h, 10 DAT) it was 50%; in experiment [3] (504 h, 21 DAT), 40%; in [6] (70 g of ai/ha alone), 70%; in experiment [4] (240 h, 10 DAT, 70 g of ai/ha alone), 40%; in the experiment on Avena fatua (AVEFA) (AVEFA, 21 DAT, 70 g of ai/ha alone) it was 10%.
On to `CCOC(=O)C(Cl)Cc1cc(-n2nc(C)n(C(F)F)c2=O)c(F)cc1Cl` (stereo not drawn) [B6-2, ethyl α,2-dichloro-5-[4-(difluoromethyl)-4,5-dihydro-3-methyl-5-oxo-1H-1,2,4-triazol-1-yl]-4-fluorobenzenepropanoate], for which the inhibition at 6 g/ha in the experiment on Oryza sativa (ORYSA) (240 h) came to 50%; in experiment [1] (504 h) it was 0%; in the experiment on Zea mays (ZEAMX) (setting [7]), 50%; in the experiment on Avena fatua (AVEFA), 10%. Also, the inhibition at 18 g/ha in experiment [1] (504 h) turned out to be 0%; in the experiment on Zea mays (ZEAMX) (setting [7]), 60%. Further, the “(7) activity found” value in experiment [2] (CYPES, 21 DAT, rate (6) B6-2 18) is 50%; in the experiment on Zea mays (ZEAMX) (ZEAMX, 21 DAT, rate (6) B6-2 6) it was 30%; with Zea mays (ZEAMX) (ZEAMX, 21 DAT, rate (6) B6-2 18), 40%.
For `CC(C)c1nn(C(=O)NC(C)(C)C)c(=O)n1N` [B6-1, 4-amino-N-(1,1-dimethylethyl)-4,5-dihydro-3-(1-methylethyl)-5-oxo-1H-1,2,4-triazole-1-carboxamide], the inhibition at 750 g/ha in [1] (504 h, ALOMY, 21 DAT, 750 g of ai/ha alone) was found to be 70%; in [2] (setting [8]), 0%; in experiment [3] (240 h, 10 DAT), 60%; in experiment [3] (504 h, 21 DAT), 70%; in experiment [4] (240 h, 10 DAT) it was 20%; in experiment [4] (504 h, 21 DAT), 70%. The inhibition at 750 g/ha with Zea mays (ZEAMX) (Zea mays, post-emergence, 504 h, ZEAMX, 21 DAT, 750 g of ai/ha alone, read-out: % activity found) came to 10%. Further, the inhibition at 250 g/ha in [2] (setting [8]) worked out at 0%; in experiment [4] (240 h, 10 DAT, 250 g of ai/ha alone), 10%.
